Experimental data as given in patent US10882860B2, “Treatment of osteoarthritis” (Samumed, LLC, priority 2015, dated 2021).
Like-named read-outs stand apart in the source and are kept apart here. Marks after values point to notes of the source that are not given here.

Legend:
Assay type in all cases: physicochemical
[1] = Competitive slurry experiments between polymorph forms (thermodynamic stability); details: for most stable form in competitive slurry: 15 forms mixed (10 mg each), RT and 50° C., 3-5 days
Protocol: In order to find out the thermodynamic stability between the different forms, several competitive slurry experiments were carried out. Form 1, Form 2, Form 2*, Form 3, Form 4, Form 4*, Form 4**, Form 5, Form 7, Form 8, Form 9, Form 10, Form 11, Form 11*, and Form 13 (10 mg for each) was mixed and slurried in 2 mL of solvent at both RT and 50° C. The solids were slurried for 3-5 days and then analyzed by XRD.
In order to find out the thermodynamic stability between Form 13 and Form 9, several competitive slurry experiments were carried out. 15 mg of Form 1, Form 9 and Form 13 solid were mixed in 1 mL of toluene, IPAc, and n-butyl acetate, and slurried for 3 days at RT and 50° C.
The residual solid was analyzed by XRD.

[2] = Dynamic vapor sorption (DVS) and exposure to humidity/air of solid forms
Protocol: The hydrate lost its water below 30% RH.
The purity of the Form 13 sample was 98.8%; the KF of an undried Form 13 sample was 35.7%.
Solvates 1 and 2 solids were exposed to air overnight, and then analyzed by XRD. After the analysis, the solids were dried at 50° C. under vacuum, and then analyzed by XRD again.

[3] = Slurry experiments in various solvents (polymorph screen)
Protocol: Slurry experiments in various solvents were performed. Approximately 30-80 mg of the starting solid (a non-stoichiometric hydrate of Form 1 having between 1% and about 20% by weight water) was slurried in 39 different solvents (pure and binary solvents; the ratio of organic solvent/water (V/V) was 95%/5%) at RT and 50° C. for 5 days. Three solvates, […], and eleven non-solvated forms were identified. […] XRD of both wet and dry samples were scanned (FIG. 12A (dry sample)).
The slurry experiments identified 3 solvated forms from wet samples (Solvates 1, 2, and 3); 2 non-stoichiometric hydrates of Form 1 (Forms 12 and 13); and 11 non-solvated forms (Forms 1-11). In some instances, similar XRD scans with minor differences were obtained. These were considered to be part of the same class (e.g., the same form). For example, XRD scans of Form 2 and Form 2* were similar and were considered to belong to the same class. The solvated forms were obtained from wet sample analysis; after drying, the sample indicated a different XRD.

[4] = Solubility of the starting solid by the gravimetric method; details: for solubility: thermodynamic from solid
[5] = slurry in EtOH/water (5% water), 50° C.
[6] = slurry in n-Butyl acetate, 50° C.
[7] = slurry in n-Propanol/water (5% water), 50° C.
[8] = slurry in DMSO/water (5% water), 50° C.
[9] = slurry in DMSO/water (5% water), RT
[10] = slurry in DMF/water (5% water), 50° C.
[11] = slurry in DMF/water (5% water), RT

CC(C)CC(=O)Nc1cncc(-c2ccc3[nH]nc(-c4nc5c(-c6cccc(F)c6)cncc5[nH]4)c3c2)c1 [Form 1, Form 9 and Form 13]
Form 9 + Form 13/Form 9 + Form 1: Form after 3 days; wet/dry ([1]; 50° C., Toluene) | Form after 3 days; wet/dry ([1]; 50° C., n-Butyl acetate) | Form after 3 days; wet/dry ([1]; RT, IPAc) | Form after 3 days; wet/dry ([1]; RT, n-Butyl acetate)
Form 9/Form 9: Form after 3 days; wet/dry ([1]; 50° C., IPAc)
Form 13/Form 1: Form after 3 days; wet/dry ([1]; RT, Toluene)

CC(C)CC(=O)Nc1cncc(-c2ccc3[nH]nc(-c4nc5c(-c6cccc(F)c6)cncc5[nH]4)c3c2)c1 [Form 1]
converts to Form 13: form change when exposed to air ([2]; exposed to air)

CC(C)CC(=O)Nc1cncc(-c2ccc3[nH]nc(-c4nc5c(-c6cccc(F)c6)cncc5[nH]4)c3c2)c1 [Form 4]
most stable: most stable form in competitive slurry ([1]; EA)

CC(C)CC(=O)Nc1cncc(-c2ccc3[nH]nc(-c4nc5c(-c6cccc(F)c6)cncc5[nH]4)c3c2)c1 [Form 9]
did not change its form: change of form before and after the DVS scan ([2]; XRD before/after DVS)
Form 9: Dry (solid form by XRD after slurry) [3, 5] | Wet (solid form by XRD after slurry) [3, 5] | Dry (solid form by XRD after slurry) ([3]; slurry in IPAc, 50° C.) | Wet (solid form by XRD after slurry) ([3]; slurry in IPAc, 50° C.) | Dry (solid form by XRD after slurry) ([3]; slurry in n-Butanol, 50° C.) | Wet (solid form by XRD after slurry) ([3]; slurry in n-Butanol, 50° C.) | Dry (solid form by XRD after slurry) ([3]; slurry in n-Butanol, RT) | Wet (solid form by XRD after slurry) ([3]; slurry in n-Butanol, RT) | Dry (solid form by XRD after slurry) [3, 6] | Wet (solid form by XRD after slurry) [3, 6] | Dry (solid form by XRD after slurry) [3, 7] | Wet (solid form by XRD after slurry) [3, 7]

CC(C)CC(=O)Nc1cncc(-c2ccc3[nH]nc(-c4nc5c(-c6cccc(F)c6)cncc5[nH]4)c3c2)c1 [Form 10]
Form 10*: Dry (solid form by XRD after slurry) ([3]; slurry in DMSO, 50° C.)
Form 10: Dry (solid form by XRD after slurry) ([3]; slurry in DMSO, RT) | Dry (solid form by XRD after slurry) [3, 8] | Dry (solid form by XRD after slurry) [3, 9]
amorphous: Wet (solid form by XRD after slurry) ([3]; slurry in DMSO, 50° C.) | Wet (solid form by XRD after slurry) ([3]; slurry in DMSO, RT) | Wet (solid form by XRD after slurry) [3, 8] | Wet (solid form by XRD after slurry) [3, 9]

CC(C)CC(=O)Nc1cncc(-c2ccc3[nH]nc(-c4nc5c(-c6cccc(F)c6)cncc5[nH]4)c3c2)c1 [Form 11]
Form 11: Wet (solid form by XRD after slurry) ([3]; slurry in DMF, 50° C.) | Dry (solid form by XRD after slurry) ([3]; slurry in DMF, RT) | Wet (solid form by XRD after slurry) ([3]; slurry in DMF, RT) | Dry (solid form by XRD after slurry) [3, 10] | Wet (solid form by XRD after slurry) [3, 10] | Dry (solid form by XRD after slurry) [3, 11] | Wet (solid form by XRD after slurry) [3, 11]
Form 11*: Dry (solid form by XRD after slurry) ([3]; slurry in DMF, 50° C.)

CC(C)CC(=O)Nc1cncc(-c2ccc3[nH]nc(-c4nc5c(-c6cccc(F)c6)cncc5[nH]4)c3c2)c1 [Form 13]
most stable: most stable form in competitive slurry ([1]; water)

CC(C)CC(=O)Nc1cncc(-c2ccc3[nH]nc(-c4nc5c(-c6cccc(F)c6)cncc5[nH]4)c3c2)c1 [Solvate 1]
converted to low crystallinity: form change after exposure to air overnight (XRD) [2]

CC(C)CC(=O)Nc1cncc(-c2ccc3[nH]nc(-c4nc5c(-c6cccc(F)c6)cncc5[nH]4)c3c2)c1 [Solvate 2]
changed a little: form change after exposure to air overnight (XRD) [2]

CC(C)CC(=O)Nc1cncc(-c2ccc3[nH]nc(-c4nc5c(-c6cccc(F)c6)cncc5[nH]4)c3c2)c1 [starting solid]
12000 µg/mL: solubility ([4]; organic solvent or mixture, DMF, RT, read-out: Solubility at RT)
1000 µg/mL: solubility ([4]; organic solvent or mixture, Acetone, 50° C., read-out: Solubility at 50° C.) | solubility ([4]; organic solvent or mixture, Acetone, RT, read-out: Solubility at RT) | solubility ([4]; organic solvent or mixture, EA, 50° C., read-out: Solubility at 50° C.) | solubility ([4]; organic solvent or mixture, EA, RT, read-out: Solubility at RT) | solubility ([4]; organic solvent or mixture, MEK, 50° C., read-out: Solubility at 50° C.) | solubility ([4]; organic solvent or mixture, MEK, RT, read-out: Solubility at RT) | solubility ([4]; organic solvent or mixture, MIBK, 50° C., read-out: Solubility at 50° C.) | solubility ([4]; organic solvent or mixture, MIBK, RT, read-out: Solubility at RT) | solubility ([4]; organic solvent or mixture, MeOH, 50° C., read-out: Solubility at 50° C.) | solubility ([4]; organic solvent or mixture, MeOH, RT, read-out: Solubility at RT) | solubility ([4]; organic solvent or mixture, Toluene, 50° C., read-out: Solubility at 50° C.) | solubility ([4]; organic solvent or mixture, Toluene, RT, read-out: Solubility at RT) | solubility ([4]; organic solvent or mixture, n-Butanol, RT, read-out: Solubility at RT) | solubility ([4]; organic solvent or mixture, n-Propanol, RT, read-out: Solubility at RT) | solubility ([4]; water, 50° C., read-out: Solubility at 50° C.) | solubility ([4]; water, RT, read-out: Solubility at RT)
2000 µg/mL: solubility ([4]; organic solvent or mixture, DCM, 50° C., read-out: Solubility at 50° C.) | solubility ([4]; organic solvent or mixture, DCM, RT, read-out: Solubility at RT) | solubility ([4]; organic solvent or mixture, EtOH, 50° C., read-out: Solubility at 50° C.) | solubility ([4]; organic solvent or mixture, EtOH, RT, read-out: Solubility at RT) | solubility ([4]; organic solvent or mixture, IPA, RT, read-out: Solubility at RT) | solubility ([4]; organic solvent or mixture, n-Butanol, 50° C., read-out: Solubility at 50° C.) | solubility ([4]; organic solvent or mixture, n-Propanol, 50° C., read-out: Solubility at 50° C.)
5000 µg/mL: solubility ([4]; organic solvent or mixture, IPA, 50° C., read-out: Solubility at 50° C.)
16000 µg/mL: solubility ([4]; organic solvent or mixture, DMF, 50° C., read-out: Solubility at 50° C.)
low solubility: Solubility (gravimetric method) ([4]; RT and 50° C., all solvents tested except DMF and DMSO)
3000 µg/mL: solubility ([4]; organic solvent or mixture, Acetic acid, 50° C., read-out: Solubility at 50° C.)
